The source of these data is patent US8952034B2, “Fused heterocyclic compounds as ion channel modulators” (Gilead Sciences, Inc., priority 2009, dated 2015).

This assay addresses wild-type human cardiac sodium channel, hNav1.5 (Homo sapiens, UniProt Q14524). As to the kind of experiment: Late INa screening assay (automated whole cell patch clamp, PatchXpress). It is filed as cell-based. Conditions: HEK293 cells expressing hNav1.5, late INa generated with 10 μM Tefluthrin (or 50 nM ATX II); for inhibition at 10 µM: compound at 10 μM, read-out: LateINa_10 uM (percent block of late INa); for inhibition at 1 µM: compound at 1 μM, read-out: LateINa_1 uM (percent block of late INa). An outline of the steps: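 Late sodium current through wild-type human hNav1.5 stably expressed in HEK293 cells (no beta subunits) was recorded by automated whole-cell patch clamp on a PatchXpress 7000A at 24-27° C. Late INa was induced with 10 μM Tefluthrin or 50 nM ATX II. Cells were stepped from −120 mV to −20 mV for 250 ms at 0.1 Hz, and percent block was normalized to current in Na-free extracellular solution.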
A general note: Patch clamp records ionic current or voltage across a cell membrane.

Sequence of wild-type human cardiac sodium channel, hNav1.5 (Q14524 whole entry): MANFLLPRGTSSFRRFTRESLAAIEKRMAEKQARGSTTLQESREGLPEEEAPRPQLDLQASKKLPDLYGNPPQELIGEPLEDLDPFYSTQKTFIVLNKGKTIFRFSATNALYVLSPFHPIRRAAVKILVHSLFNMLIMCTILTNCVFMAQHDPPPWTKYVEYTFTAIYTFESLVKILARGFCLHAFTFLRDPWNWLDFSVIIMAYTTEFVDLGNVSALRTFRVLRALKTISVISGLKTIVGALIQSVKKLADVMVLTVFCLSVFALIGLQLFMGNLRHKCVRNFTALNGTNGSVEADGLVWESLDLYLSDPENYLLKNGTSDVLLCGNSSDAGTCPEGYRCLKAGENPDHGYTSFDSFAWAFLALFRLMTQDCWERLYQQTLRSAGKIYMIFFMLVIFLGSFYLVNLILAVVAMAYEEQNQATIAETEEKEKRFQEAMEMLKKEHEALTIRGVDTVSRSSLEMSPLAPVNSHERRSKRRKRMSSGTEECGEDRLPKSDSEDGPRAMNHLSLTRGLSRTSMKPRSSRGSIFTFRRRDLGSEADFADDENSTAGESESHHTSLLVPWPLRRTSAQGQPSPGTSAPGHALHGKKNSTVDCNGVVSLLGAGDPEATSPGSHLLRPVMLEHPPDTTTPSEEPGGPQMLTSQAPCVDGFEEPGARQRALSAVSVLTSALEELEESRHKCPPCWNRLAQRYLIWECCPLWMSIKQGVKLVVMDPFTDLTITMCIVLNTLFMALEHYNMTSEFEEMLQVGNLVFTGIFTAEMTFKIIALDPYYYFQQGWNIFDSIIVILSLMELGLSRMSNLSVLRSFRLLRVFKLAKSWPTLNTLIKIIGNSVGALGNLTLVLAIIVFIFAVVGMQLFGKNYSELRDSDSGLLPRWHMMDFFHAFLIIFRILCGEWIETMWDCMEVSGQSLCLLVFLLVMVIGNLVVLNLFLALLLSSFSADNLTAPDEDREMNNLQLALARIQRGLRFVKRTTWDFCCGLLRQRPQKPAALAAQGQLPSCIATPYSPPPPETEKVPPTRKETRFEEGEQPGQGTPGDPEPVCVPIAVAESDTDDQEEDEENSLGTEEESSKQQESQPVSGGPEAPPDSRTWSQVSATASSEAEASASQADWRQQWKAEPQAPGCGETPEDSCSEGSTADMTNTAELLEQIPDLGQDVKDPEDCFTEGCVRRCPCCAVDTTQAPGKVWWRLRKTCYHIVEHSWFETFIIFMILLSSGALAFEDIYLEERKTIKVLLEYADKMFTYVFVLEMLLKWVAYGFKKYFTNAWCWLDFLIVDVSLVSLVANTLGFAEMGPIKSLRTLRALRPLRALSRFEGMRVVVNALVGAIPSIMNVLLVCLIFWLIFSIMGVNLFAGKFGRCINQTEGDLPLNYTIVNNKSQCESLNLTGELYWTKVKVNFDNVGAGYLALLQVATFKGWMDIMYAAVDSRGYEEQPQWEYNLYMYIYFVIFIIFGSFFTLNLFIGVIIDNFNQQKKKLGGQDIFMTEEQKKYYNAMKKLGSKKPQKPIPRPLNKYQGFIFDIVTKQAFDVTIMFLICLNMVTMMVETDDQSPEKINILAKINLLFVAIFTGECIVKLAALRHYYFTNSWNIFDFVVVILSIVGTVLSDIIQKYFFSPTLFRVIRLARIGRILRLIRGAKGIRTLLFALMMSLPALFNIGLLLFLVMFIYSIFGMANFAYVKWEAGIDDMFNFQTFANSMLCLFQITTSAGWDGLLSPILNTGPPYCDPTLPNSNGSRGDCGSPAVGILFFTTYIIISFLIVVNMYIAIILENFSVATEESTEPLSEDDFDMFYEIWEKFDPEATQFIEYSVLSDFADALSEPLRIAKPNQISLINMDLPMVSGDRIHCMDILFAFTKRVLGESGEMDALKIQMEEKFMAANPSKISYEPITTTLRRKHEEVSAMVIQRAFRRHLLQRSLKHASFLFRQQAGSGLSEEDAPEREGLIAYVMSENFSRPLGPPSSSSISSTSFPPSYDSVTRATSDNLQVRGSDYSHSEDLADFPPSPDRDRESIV

As to `CCOC(=O)c1cccc(-c2ccc3nnc(-c4cccc(C(=O)OCC)c4)n3c2)c1` [BHN-80, diethyl 3,3′-[1,2,4]triazolo[4,3-a]pyridine-3,6-diyldibenzoate], the inhibition at 10 µM worked out at 59%.

On to `FC(F)(F)Oc1ccc(-c2ccc3nnc(C(F)(F)F)n3c2)c2ncccc12` [BHN-161, 5-(trifluoromethoxy)-8-[3-(trifluoromethyl)[1,2,4]triazolo[4,3-a]pyridin-6-yl]quinoline], for which the inhibition at 1 µM worked out at 49.5%.

On to `Cc1nc(COC(F)(F)c2nnc3ccc(-c4ccc(OC(F)(F)F)cc4)cn23)no1` [BHN-147, 3-{difluoro[(5-methyl-1,2,4-oxadiazol-3-yl)methoxy]methyl}-6-[4-(trifluoromethoxy)phenyl][1,2,4]triazolo[4,3-a]pyridine], for which the inhibition at 1 µM came out at 29.1%.

As to `CC(OCc1nnc2ccc(-c3ccc(OC(F)(F)F)cc3)cn12)c1ccccc1` (stereo not shown) [BHN-246, 3-[(1-phenylethoxy)methyl]-6-[4-(trifluoromethoxy)phenyl][1,2,4]triazolo[4,3-a]pyridine], the inhibition at 1 µM was found to be 85.8%.

As to `FC(F)(F)c1nnc2ccc(-c3ccc(OC(F)(F)c4ccccc4)cc3)cn12` [BHN-272, 6-{4-[difluoro(phenyl)methoxy]phenyl}-3-(trifluoromethyl)[1,2,4]triazolo[4,3-a]pyridine], the inhibition at 1 µM stood at 64.9%.

Consider `O=C(NCC(F)(F)c1nnc2ccc(-c3ccc(OC(F)(F)F)cc3)cn12)c1ccccn1` [BHN-184, N-(2,2-difluoro-2-{6-[4-(trifluoromethoxy)phenyl][1,2,4]triazolo[4,3-a]pyridin-3-yl}ethyl)pyridine-2-carboxamide], for which the inhibition at 1 µM was determined as 29.8%.

In the case of `FC(F)(F)Oc1ccc(-c2ccc3nnc(C(F)(F)OCc4cccc5ncccc45)n3c2)cc1` [BHN-281, 5-[(difluoro{6-[4-(trifluoromethoxy)phenyl][1,2,4]triazolo[4,3-a]pyridin-3-yl}methoxy)methyl]quinoline], the inhibition at 1 µM is 53.9%.

For `c1ccc(Oc2ccc(-c3ccc4nncn4n3)cc2)cc1` [BHN-22, 6-(4-phenoxyphenyl)[1,2,4]triazolo[4,3-b]pyridazine], the inhibition at 10 µM was 59%.

Regarding `Cc1nccn1-c1ccccc1COC(F)(F)c1nnc2ccc(-c3ccc(OC(F)(F)F)cc3)cn12` [BHN-312, 3-(difluoro{[2-(2-methyl-1H-imidazol-1-yl)benzyl]oxy}methyl)-6-[4-(trifluoromethoxy)phenyl][1,2,4]triazolo[4,3-a]pyridine], the inhibition at 1 µM was found to be 51.4%.

As for `CNC(=O)c1cc(-c2ccc3nnc(C(F)(F)F)n3c2)ccc1OC(F)(F)F` [BHN-174, N-methyl-2-(trifluoromethoxy)-5-[3-(trifluoromethyl)[1,2,4]triazolo[4,3-a]pyridin-6-yl]benzamide], the inhibition at 1 µM stood at 16%.

Regarding `CC(C)c1nc(COC(F)(F)c2nnc3ccc(-c4ccc(OC(F)(F)F)cc4)cn23)no1` [BHN-208, 3-(difluoro{[5-(propan-2-yl)-1,2,4-oxadiazol-3-yl]methoxy}methyl)-6-[4-(trifluoromethoxy)phenyl][1,2,4]triazolo[4,3-a]pyridine], the inhibition at 1 µM was found to be 70.5%.

On to `Cc1cc(COC(F)(F)c2nnc3ccc(-c4ccc(OC(F)(F)F)cc4)cn23)no1` [BHN-193, 3-{difluoro[(5-methyl-1,2-oxazol-3-yl)methoxy]methyl}-6-[4-(trifluoromethoxy)phenyl][1,2,4]triazolo[4,3-a]pyridine], for which the inhibition at 1 µM came to 54.7%.

With `N#Cc1cccc(-c2nnc3ccc(-c4ccc(F)cc4)nn23)c1` [BHN-51, 3-[6-(4-fluorophenyl)[1,2,4]triazolo[4,3-b]pyridazin-3-yl]benzonitrile], the inhibition at 10 µM was found to be 40.5%.

As for `OC(c1nnc2ccc(-c3ccc(OC(F)(F)F)cc3)cn12)C(F)(F)F` (stereo not shown) [BHN-155, 2,2,2-trifluoro-1-{6-[4-(trifluoromethoxy)phenyl][1,2,4]triazolo[4,3-a]pyridin-3-yl}ethanol], the inhibition at 1 µM was determined as 16.2%.

As for `CC1(c2ccc(-c3ccc4nnc(C(F)(F)F)n4c3)cc2)OCCO1` [BHN-162, 6-[4-(2-methyl-1,3-dioxolan-2-yl)phenyl]-3-(trifluoromethyl)[1,2,4]triazolo[4,3-a]pyridine], the inhibition at 1 µM came out at 29.9%.

For `OCC(F)(F)c1nnc2ccc(C#Cc3ccc(C(F)(F)F)cc3)cn12` [BHN-198, 2,2-difluoro-2-(6-{[4-(trifluoromethyl)phenyl]ethynyl}[1,2,4]triazolo[4,3-a]pyridin-3-yl)ethanol], the inhibition at 1 µM turned out to be 17.4%.

Turning to `FC(F)(F)Oc1ccc(-c2ccc3nnc(COCc4ccccc4)n3c2)cc1` [BHN-127, 3-[(benzyloxy)methyl]-6-[4-(trifluoromethoxy)phenyl][1,2,4]triazolo[4,3-a]pyridine], the inhibition at 1 µM was 93.2%.

Regarding `FC(F)(F)Oc1ccc(-c2ccc3nnc(C(F)(F)OCc4cn(Cc5ccccc5)nn4)n3c2)cc1` [BHN-297, 3-{[(1-benzyl-1H-1,2,3-triazol-4-yl)methoxy](difluoro)methyl}-6-[4-(trifluoromethoxy)phenyl][1,2,4]triazolo[4,3-a]pyridine], the inhibition at 1 µM was found to be 63.4%.

In the case of `Cc1cc(-c2ccc(OC(F)(F)F)cc2)cn2nnnc12` [BHN-268, 8-methyl-6-[4-(trifluoromethoxy)phenyl]tetrazolo[1,5-a]pyridine], the inhibition at 1 µM amounted to 43.2%.

Take `FC(F)(F)c1nnc2ccc(-c3cccc(Oc4ccccc4)c3)cn12` [BHN-9, 6-(3-phenoxyphenyl)-3-(trifluoromethyl)[1,2,4]triazolo[4,3-a]pyridine]: the inhibition at 1 µM came out at 29.6% and the inhibition at 10 µM came to 75.7%.

In the case of `FC(F)(F)Oc1ccc(-c2ccc3nnc(C(F)(F)OCc4ccncc4)n3c2)cc1` [BHN-149, 3-[difluoro(pyridin-4-ylmethoxy)methyl]-6-[4-(trifluoromethoxy)phenyl][1,2,4]triazolo[4,3-a]pyridine], the inhibition at 1 µM is 34%.

Regarding `Cc1nc2ccc(-c3cccc(Oc4ccccc4)c3)cn2n1` [BHN-348, 2-methyl-6-(3-phenoxyphenyl)[1,2,4]triazolo[1,5-a]pyridine], the inhibition at 10 µM turned out to be 65.7%.

`FC(F)(F)Oc1ccc(-c2ccc3nnc(C(F)(F)COCc4ccccn4)n3c2)cc1` [BHN-172, 3-[1,1-difluoro-2-(pyridin-2-ylmethoxy)ethyl]-6-[4-(trifluoromethoxy)phenyl][1,2,4]triazolo[4,3-a]pyridine]: the inhibition at 1 µM came to 30.7%.

As to `c1ccc(Oc2cccc(-c3ccc4ncnn4c3)c2)cc1` [BHN-347, 6-(3-phenoxyphenyl)[1,2,4]triazolo[1,5-a]pyridine], the inhibition at 10 µM amounted to 73.6%.

As to `FC(F)(F)Oc1ccc(-c2ccc3nnc(C(F)(F)F)n3c2)c(-c2cccnc2)c1` [BHN-132, 6-[2-(pyridin-3-yl)-4-(trifluoromethoxy)phenyl]-3-(trifluoromethyl)[1,2,4]triazolo[4,3-a]pyridine], the inhibition at 1 µM worked out at 29.4%.

Turning to `FC(F)(F)Oc1ccc(-c2ccc3nnc(C#CC4CC4)n3c2)cc1` [BHN-171, 3-(cyclopropylethynyl)-6-[4-(trifluoromethoxy)phenyl][1,2,4]triazolo[4,3-a]pyridine], the inhibition at 1 µM was 49.3%.

For the compound `Cc1nnc2ccc(-c3ccc(Oc4ccccc4)cc3)cn12` [BHN-333, 3-methyl-6-(4-phenoxyphenyl)[1,2,4]triazolo[4,3-a]pyridine], the inhibition at 10 µM is 61.6%.

Consider `FC(F)(F)Oc1ccc(-c2ccc3nnc(Oc4ccccc4)n3c2)cc1` [BHN-143, 3-phenoxy-6-[4-(trifluoromethoxy)phenyl][1,2,4]triazolo[4,3-a]pyridine], for which the inhibition at 1 µM was determined as 81.4%.

In the case of `COCC(F)(F)c1nnc2ccc(C#Cc3ccccc3)cn12` [BHN-192, 3-(1,1-difluoro-2-methoxyethyl)-6-(phenylethynyl)[1,2,4]triazolo[4,3-a]pyridine], the inhibition at 1 µM amounted to 31%.

As for `Cc1cc(OC(F)(F)F)ccc1-c1cc(N)c2nnc(C)n2c1` [BHN-70, 3-methyl-6-[2-methyl-4-(trifluoromethoxy)phenyl][1,2,4]triazolo[4,3-a]pyridin-8-amine], the inhibition at 10 µM is 40.4%.

Regarding `FC(F)(F)COc1ccc(-c2ccc3nnc(C(F)(F)F)n3c2)nn1` [BHN-187, 6-[6-(2,2,2-trifluoroethoxy)pyridazin-3-yl]-3-(trifluoromethyl)[1,2,4]triazolo[4,3-a]pyridine], the inhibition at 1 µM came out at 15.2%.

Consider `CC(OC(F)(F)c1cccnc1)c1nnc2ccc(-c3ccc(OC(F)(F)F)cc3)cn12` (stereo not shown) [BHN-249, 3-{1-[difluoro(pyridin-3-yl)methoxy]ethyl}-6-[4-(trifluoromethoxy)phenyl][1,2,4]triazolo[4,3-a]pyridine], for which the inhibition at 1 µM is 22.7%.

Take `Cn1ncc2cc(-c3ccc4nnc(C(F)(F)F)n4c3)ccc21` [BHN-59, 6-(1-methyl-1H-indazol-5-yl)-3-(trifluoromethyl)[1,2,4]triazolo[4,3-a]pyridine]: the inhibition at 10 µM amounted to 39.8%.

In the case of `COC(=O)c1ccc(-c2ccc3nnc(C(F)(F)F)n3c2)cc1` [BHN-46, methyl 4-[3-(trifluoromethyl)[1,2,4]triazolo[4,3-a]pyridin-6-yl]benzoate], the inhibition at 10 µM turned out to be 53.9%.

In the case of `FC(F)(F)Oc1ccc(-c2ccc3nnc(C(F)(F)F)n3c2)c(Br)c1` [BHN-124, 6-[2-bromo-4-(trifluoromethoxy)phenyl]-3-(trifluoromethyl)[1,2,4]triazolo[4,3-a]pyridine], the inhibition at 1 µM was 82%.

As for `Cc1c(-c2ccc(C(F)(F)F)cc2)ccc2ncnn12` [BHN-350, 5-methyl-6-[4-(trifluoromethyl)phenyl][1,2,4]triazolo[1,5-a]pyridine], the inhibition at 10 µM came to 44.5%.
